Assay results reported in patent publication US20230381146A1, “SUBSTITUTED HETEROARYL COMPOUNDS AND USE THEREOF” (HELIOS HUAMING BIOPHARMA CO., LTD., priority 2020, published 2023).

Molecular target: PAD4 (Homo sapiens, UniProt Q9UM07)
Test: PAD4 Inhibition Assay (citrulline formation from BAEE substrate)
Assay type: biochemical
Details: PAD4 75 nM, 60 minute preincubation at 37° C., 90 minutes
Experimental: PAD4 was diluted to 75 nM in Assay Buffer (50 mM Tris-HCl, 2 mM CaCl2), 2 mM DTT, 1 mM PMSF in H2O) and added to wells with various concentrations of compound or DMSO vehicle in Eppendorf tubes (final volume was 100 μL). Following a 60 minute preincubation at 37° C., the reaction was initiated by the addition of 10 μL substrate (22 mM BAEE in H2O) at 37° C. The reaction was stopped after 90 minutes by the addition of 25 μL HClO4 (5 M), 125 μL Reagent A (10 g/L diacetyl monoxime and 15 g/L NaCl in H2O) and 250 μL Reagent B (10 mg/mL antipyrine and 1.0 mg/mL FeCl3 diluted in detection buffer containing 25% H2SO4, 25% H3PO4 and 50% H2O) in sequence. This assay was quenched in an ice-bath for 5 minutes after boiling for 30 minutes. The citrulline formation was measured in fluorescence (κ=465 nm) on microplate reader and the IC50 was calculated by GraphPad Prism.

Chain of PAD4 (Q9UM07 whole entry): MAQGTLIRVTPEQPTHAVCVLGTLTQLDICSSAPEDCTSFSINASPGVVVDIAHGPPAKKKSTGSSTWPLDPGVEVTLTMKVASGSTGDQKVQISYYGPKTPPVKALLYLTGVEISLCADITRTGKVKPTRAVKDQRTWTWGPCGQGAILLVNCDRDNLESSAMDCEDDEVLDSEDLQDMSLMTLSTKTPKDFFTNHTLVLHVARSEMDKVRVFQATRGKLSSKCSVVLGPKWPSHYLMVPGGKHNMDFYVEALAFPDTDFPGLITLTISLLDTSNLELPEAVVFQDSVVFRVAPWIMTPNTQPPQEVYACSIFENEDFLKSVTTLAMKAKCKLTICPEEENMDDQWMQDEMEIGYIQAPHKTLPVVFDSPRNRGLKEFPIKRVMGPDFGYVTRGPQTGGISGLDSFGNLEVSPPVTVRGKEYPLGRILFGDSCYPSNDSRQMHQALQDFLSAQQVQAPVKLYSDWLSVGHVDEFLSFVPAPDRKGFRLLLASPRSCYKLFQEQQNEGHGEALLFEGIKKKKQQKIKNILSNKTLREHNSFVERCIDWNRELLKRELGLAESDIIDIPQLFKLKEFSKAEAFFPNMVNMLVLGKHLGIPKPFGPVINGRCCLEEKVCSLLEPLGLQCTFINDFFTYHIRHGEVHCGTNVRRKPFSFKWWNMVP

Structure (SMILES) | IC50
N=C(CCl)NCCC[C@H](NC(=O)c1cccc(-c2cccc(Cl)c2)c1)c1ncc(-c2ccccc2)o1 [EX-2, (S)-3′-chloro-N-(4-(2-chloroacetimidamido)-1-(5-phenyloxazol-2-yl)butyl)-[1,1′-biphenyl]-3-carboxamide] | > 500 nM
CN(C)c1cccc(Cl)c1C(=O)N[C@@H](CCCNC(=N)CF)c1ncc(-c2ccc(Cl)cc2)o1 [EX-23, (S)-2-Chloro-N-(1-(5-(4-chlorophenyl)oxazol-2-yl)-4-(2-fluoroacetimidamido)butyl)-6-(dimethylamino)benzamide] | 200 to 500 nM
COc1cccc(-c2cccc(C(=O)N[C@@H](CCCNC(=N)CF)c3ncc(-c4ccccc4)o3)c2)c1 [EX-5, (S)—N-(4-(2-fluoroacetimidamido)-1-(5-phenyloxazol-2-yl)butyl)-3′-methoxy-[1,1′-biphenyl]-3-carboxamide] | 200 to 500 nM
Cc1cccc(-c2cnc([C@H](CCCNC(=N)CF)NC(=O)c3c(F)cccc3F)o2)c1 [EX-32, (S)-2,6-Difluoro-N-(4-(2-fluoroacetimidamido)-1-(5-(m-tolyl)oxazol-2-yl)butyl)benzamide] | 200 to 500 nM
N=C(CF)NCCC[C@H](NC(=O)c1cccc(-c2cc(Cl)ccn2)c1)c1ncc(-c2ccccc2)o1 [EX-15] | > 500 nM
COc1ccccc1C(=O)N[C@@H](CCCNC(=N)CF)c1ncc(-c2ccccc2)[nH]1 [EX-37, (S)—N-(4-(2-fluoroacetimidamido)-1-(5-phenyl-1H-imidazol-2-yl)butyl)-2-methoxybenzamide] | > 500 nM
N=C(CF)NCCC[C@H](NC(=O)c1c(Cl)cccc1Cl)c1ncc(-c2ccc(F)cc2)o1 [EX-30, (S)-2,6-Dichloro-N-(4-(2-fluoroacetimidamido)-1-(5-(4-fluorophenyl)oxazol-2-yl)butyl)benzamide] | > 500 nM
CN(C)c1ccc2cc(C(=O)N[C@@H](CCCNC(=N)CF)c3ncc(-c4ccccc4)o3)ccc2c1 [EX-4, (S)-6-(Dimethylamino)-N-(4-(2-fluoroacetimidamido)-1-(5-phenyloxazol-2-yl)butyl)-2-naphthamide] | 200 to 500 nM
CN(C)c1ccc2cc(C(=O)N[C@@H](CCCNC(=N)CCl)c3ncc(-c4ccccc4)o3)ccc2c1 [EX-3, N-[(1S)-4-(2-chloroethanimidamido)-1-(5-phenyl-1,3-oxazol-2-yl)butyl]-6-(dimethylamino)naphthalene-2-carboxamide] | 200 to 500 nM
CN(C)c1ccc2cc(C(=O)N[C@@H](CCCNC(=N)CF)c3ncc(-c4ccc(Cl)cc4)o3)ccc2c1 [EX-7, (S)—N-(1-(5-(4-chlorophenyl)oxazol-2-yl)-4-(2-fluoroacetimidamido)butyl)-6-(dimethylamino)-2-naphthamide] | > 500 nM
N=C(CF)NCCC[C@H](NC(=O)c1cccc(-c2ccc(CO)cc2)c1)c1ncc(-c2ccc(Cl)cc2)o1 [EX-9, (S)—N-(1-(5-(4-chlorophenyl)oxazol-2-yl)-4-(2-fluoroacetimidamido)butyl)-4′-(hydroxymethyl)-[1,1′-biphenyl]-3-carboxamide] | > 500 nM
COc1ccc(-c2cccc(C(=O)N[C@@H](CCCNC(=N)CF)c3ncc(-c4ccccc4)o3)c2)cc1 [EX-6, (S)—N-(4-(2-fluoroacetimidamido)-1-(5-phenyloxazol-2-yl)butyl)-4′-methoxy-[1,1′-biphenyl]-3-carboxamide] | 200 to 500 nM
N=C(CF)NCCC[C@H](NC(=O)c1cccc(-c2cccc(Cl)c2)c1)c1ncc(-c2ccccc2)o1 [EX-1, (S)-3′-chloro-N-(4-(2-fluoroacetimidamido)-1-(5-phenyloxazol-2-yl)butyl)-[1,1′-biphenyl]-3-carboxamide] | 200 to 500 nM
COc1ccc(OCCCNC(=O)CCCC(=O)NCCCOCCOCCOCCCNC(=O)CCCC[C@@H]2SC[C@@H]3NC(=O)N[C@@H]32)cc1C(=O)N[C@@H](CCCNC(=N)CF)c1ncc(-c2cccc(Cl)c2)o1 [EX-42, N^1-(3-(3-(((S)-1-(5-(3-Chlorophenyl)oxazol-2-yl)-4-(2-fluoroacetimidamido)butyl)carbamoyl)-4-methoxyphenoxy)propyl)-N^5-(15-oxo-19-((3aS,4S,6aR)-2-oxohexahydro-1H-thieno[3,4-d]imidazol-4-yl)-4,7,10-trioxa-14-azanonadecyl)glutaramide] | > 500 nM
N=C(CF)NCCC[C@H](NC(=O)c1c(F)cccc1Cl)c1ncc(-c2cccc(Cl)c2)o1 [EX-35, (S)-2-Chloro-N-(1-(5-(3-chlorophenyl)oxazol-2-yl)-4-(2-fluoroacetimidamido)butyl)-6-fluorobenzamide] | 200 to 500 nM
COc1cccc(Cl)c1C(=O)N[C@@H](CCCNC(=N)CF)c1ncc(-c2cccc(NC(=O)CCCNC(=O)CCCC[C@@H]3SC[C@@H]4NC(=O)N[C@@H]43)c2)o1 [EX-41, 2-Chloro-N—((S)-4-(2-fluoroacetimidamido)-1-(5-(3-(4-(5-((3aS,4S,6aR)-2-oxohexahydro-1H-thieno[3,4-d]imidazol-4-yl)pentanamido)butanamido)phenyl)oxazol-2-yl)butyl)-6-methoxybenzamide] | 200 to 500 nM

The next lines start with the values.

IC50 | Structure (SMILES)
200 to 500 nM | COc1ccc(-c2cnc([C@H](CCCNC(=N)CF)NC(=O)c3c(OC)cccc3OC)o2)cc1 [EX-20, (S)-N-(4-(2-Fluoroacetimidamido)-1-(5-(4-methoxyphenyl)oxazol-2-yl)butyl)-2,6-dimethoxybenzamide]
200 to 500 nM | COc1cc2c(OC)cccc2cc1C(=O)N[C@@H](CCCNC(=N)CF)c1ncc(-c2cccc(F)c2)o1 [EX-14, (S)-N-(4-(2-Fluoroacetimidamido)-1-(5-(3-fluorophenyl)oxazol-2-yl)butyl)-3,5-dimethoxy-2-naphthamide]
200 to 500 nM | COc1cccc(F)c1C(=O)N[C@@H](CCCNC(=N)CF)c1ncc(-c2cccc(C)c2)o1 [EX-31, (S)-2-Fluoro-N-(4-(2-fluoroacetimidamido)-1-(5-(m-tolyl)oxazol-2-yl)butyl)-6-methoxybenzamide]
< 200 nM | COc1cc2ccccc2cc1C(=O)N[C@@H](CCCNC(=N)CF)c1ncc(-c2ccccc2)o1 [EX-36, (S)—N-(4-(2-fluoroacetimidamido)-1-(5-phenyloxazol-2-yl)butyl)-3-methoxy-2-naphthamide]
> 500 nM | COc1cc2c(OC)cccc2cc1C(=O)N[C@@H](CCCNC(=N)CF)c1ncc(C)o1 [EX-12, (S)-N-(4-(2-fluoroacetimidamido)-1-(5-methyloxazol-2-yl)butyl)-3,5-dimethoxy-2-naphthamide]
> 500 nM | CN(C)c1ccc2cc(C(=O)N[C@@H](CCCNC(=N)CF)c3ncc(-c4cccc(F)c4)o3)ccc2c1 [EX-8, (S)-6-(Dimethylamino)-N-(4-(2-fluoroacetimidamido)-1-(5-(3-fluorophenyl)oxazol-2-yl)butyl)-2-naphthamide]
200 to 500 nM | COc1ccc(N2CCN(C)CC2)cc1C(=O)N[C@@H](CCCNC(=N)CF)c1ncc(-c2ccccc2)o1 [EX-18, (S)-N-(4-(2-Fluoroacetimidamido)-1-(5-phenyloxazol-2-yl)butyl)-2-methoxy-5-(4-methylpiperazin-1-yl)benzamide]
200 to 500 nM | COc1ccc(-c2ccccc2)cc1C(=O)N[C@@H](CCCNC(=N)CF)c1ncc(-c2ccccc2)o1 [EX-38, (S)—N-(4-(2-fluoroacetimidamido)-1-(5-phenyloxazol-2-yl)butyl)-4-methoxy-[1,1′-biphenyl]-3-carboxamide]
200 to 500 nM | COc1cc2c(OC)cccc2cc1C(=O)N[C@@H](CCCNC(=N)CF)c1ncc(C2CCCC2)o1 [EX-11, (S)-N-(1-(5-Cyclopentyloxazol-2-yl)-4-(2-fluoroacetimidamido)butyl)-3,5-dimethoxy-2-naphthamide]
> 500 nM | COc1cccc(OC)c1C(=O)N[C@@H](CCCNC(=N)CF)c1nc(-c2ccc(Cl)cc2)no1 [EX-40]
> 500 nM | COc1cccc(OC)c1C(=O)N[C@@H](CCCNC(=N)CF)c1nnc(-c2ccc(Cl)cc2)o1 [EX-39, (S)—N-(1-(5-(4-Chlorophenyl)-1,3,4-oxadiazol-2-yl)-4-(2-fluoroacetimidamido)butyl)-2,6-dimethoxybenzamide]
> 500 nM | COc1cccc(Cl)c1C(=O)N[C@@H](CCCNC(=N)CF)c1ncc(-c2ccc(N(C)C)cc2)o1 [EX-29, (S)-2-Chloro-N-(1-(5-(4-(dimethylamino)phenyl)oxazol-2-yl)-4-(2-fluoroacetimidamido)butyl)-6-methoxybenzamide]
> 500 nM | COc1cccc(Cl)c1C(=O)N[C@@H](CCCNC(=N)CF)c1ncc(-c2cccc(C(F)(F)F)c2)o1 [EX-27, (S)-2-Chloro-N-(4-(2-fluoroacetimidamido)-1-(5-(3-(trifluoromethyl)phenyl)oxazol-2-yl)butyl)-6-methoxybenzamide]
200 to 500 nM | COc1cccc(OC)c1C(=O)N[C@@H](CCCNC(=N)CF)c1ncc(-c2ccc(Cl)cc2)o1 [EX-19]
200 to 500 nM | COc1cccc(Cl)c1C(=O)N[C@@H](CCCNC(=N)CF)c1ncc(-c2cc(F)cc(F)c2)o1 [EX-25, (S)-2-Chloro-N-(1-(5-(3,5-difluorophenyl)oxazol-2-yl)-4-(2-fluoroacetimidamido)butyl)-6-methoxybenzamide]
< 200 nM | COc1cc2c(OC)cccc2cc1C(=O)N[C@@H](CCCNC(=N)CF)c1ncc(-c2ccccc2)o1 [EX-10]
200 to 500 nM | COc1cccc(Cl)c1C(=O)N[C@@H](CCCNC(=N)CF)c1ncc(-c2ccc(Cl)cc2)o1 [EX-22, (S)-2-chloro-N-(1-(5-(4-chlorophenyl)oxazol-2-yl)-4-(2-fluoroacetimidamido)butyl)-6-methoxybenzamide]
